Counter-ions that a name gives are not always drawn.
Tests used:
[1] = target: T1, human S1P1 receptor (Homo sapiens, UniProt P21453); experiment: S1P1 GTPγS binding assay (and alternative method); type: biochemical; conditions: in one of the above S1P1 GTPγS binding assays (first or alternative method, RH7777 membranes)
T1 construct: expressed in transfected cells; membranes
Procedure: For membrane preparations all steps were performed at 4° C. Rat hepatoma cells stably expressing the human S1P1 receptor or Rat Basophilic Leukaemia cells (RBL) stably expressing human S1P3 receptor were grown to 80% confluency before being harvested into 10 ml Phospho-Buffered Saline (PBS) and centrifuged at 1200 rpm […]. After removal of the supernatant, the pellet was re-suspended and cells were homogenised within a glass Waring blender for 2 bursts of 15 secs in 200 mls of buffer (50 mM HEPES, 1 mM leupeptin, 25 μg/ml bacitracin, 1 mM EDTA, 1 mM PMSF, 2 μM pepstatin A). The blender was plunged into ice for 5 mins after the first burst and 10-40 mins after the final burst to allow foam to dissipate. The material was then spun at 500 g for 20 mins and the supernatant spun for 36 mins at 48,000 g. The pellet was resuspended in the same buffer as above but without PMSF and pepstatin A. The material was then forced through a 0.6 mm needle, made up to the required volume, (usually ×4 the volume of the original cell pellet), aliquoted and stored frozen at −80° C. Human S1P1 rat hepatoma membranes (1.5 μg/well) were adhered to a wheatgerm agglutinin (WGA)-coated scintillation proximity assay (SPA) beads (0.125 mg/well) in assay buffer (HEPES 20 mM, MgCl2 10 mM, NaCl 100 mM and pH adjusted to 7.4 using KOH 5M, GDP 10 μM FAC (final assay concentration) and saponin 90 μg/ml FAC was also added). After 30 minutes pre-coupling on ice the bead and membrane suspension was dispensed into a white Greiner polypropylene LV384-well plate (5 μl/well), containing 0.1 μl of the compound. 5 μl/well [^35S]-GTPγS (0.5 nM final radioligand conc) made up in assay buffer was then added to agonist plates. The final assay cocktail […] was then centrifuged at 1000 rpm for 5 minutes then read immediately on a Viewlux reader. All test compounds were dissolved in DMSO at a concentration of 10 mM and were prepared in 100% DMSO using a 1 in 4 dilution step to provide 11 point dose response curves. The dilutions were transferred to the assay plates ensuring that the DMSO concentration was constant across the plate for all assays. All data was normalized to the mean of 16 high and 16 low control wells on each plate. A four parameter curve fit was then applied. S1P1 expressing RH7777 membranes (1.5 μg/well) […] were homogenised by passing through a 23G needle. These were then adhered to WGA-coated SPA beads (0.125 mg/well) in assay buffer (HEPES 20 mM, MgCl2 10 mM, NaCl 100 mM and pH adjusted to 7.4 using KOH 5M). GDP 10 μM FAC and saponin 90 μg/ml FAC were also added After 30 minutes precoupling on ice, the bead and membrane suspension was dispensed into white Greiner polypropylene LV 384-well plates (5 μl/well), containing 0.1 μl of compound. 5 μl/well [^35S]-GTPγS (0.5 nM for S1P1 or 0.3 nM for S1P3 final radioligand concentration) made in assay buffer was then added to the plates. The final assay cocktail (10.1 μl) was then sealed, spun on a centrifuge, then read immediately on a Viewlux instrument.

[2] = target: T2, human S1P3 receptor (Homo sapiens, UniProt Q99500); experiment: S1P3 GTPγS binding assay (and alternative method); type: biochemical; conditions: in one of the above S1P3 GTPγS binding assays (first or alternative method, RBL membranes)
T2 construct: expressed in transfected cells; membranes
Procedure: For membrane preparations all steps were performed at 4° C. Rat hepatoma cells stably expressing the human S1P1 receptor or Rat Basophilic Leukaemia cells (RBL) stably expressing human S1P3 receptor were grown to 80% confluency before being harvested into 10 ml Phospho-Buffered Saline (PBS) and centrifuged at 1200 rpm […]. After removal of the supernatant, the pellet was re-suspended and cells were homogenised within a glass Waring blender for 2 bursts of 15 secs in 200 mls of buffer (50 mM HEPES, 1 mM leupeptin, 25 μg/ml bacitracin, 1 mM EDTA, 1 mM PMSF, 2 μM pepstatin A). The blender was plunged into ice for 5 mins after the first burst and 10-40 mins after the final burst to allow foam to dissipate. The material was then spun at 500 g for 20 mins and the supernatant spun for 36 mins at 48,000 g. The pellet was resuspended in the same buffer as above but without PMSF and pepstatin A. The material was then forced through a 0.6 mm needle, made up to the required volume, (usually ×4 the volume of the original cell pellet), aliquoted and stored frozen at −80° C. […] The final assay cocktail (10.1 μl) was centrifuged at 1000 rpm for 5 minutes then read immediately on a Viewlux reader. […] The final assay cocktail (10.1 μl) was then sealed, spun on a centrifuge, then read immediately on a Viewlux instrument.

T1 sequence (P21453 whole entry): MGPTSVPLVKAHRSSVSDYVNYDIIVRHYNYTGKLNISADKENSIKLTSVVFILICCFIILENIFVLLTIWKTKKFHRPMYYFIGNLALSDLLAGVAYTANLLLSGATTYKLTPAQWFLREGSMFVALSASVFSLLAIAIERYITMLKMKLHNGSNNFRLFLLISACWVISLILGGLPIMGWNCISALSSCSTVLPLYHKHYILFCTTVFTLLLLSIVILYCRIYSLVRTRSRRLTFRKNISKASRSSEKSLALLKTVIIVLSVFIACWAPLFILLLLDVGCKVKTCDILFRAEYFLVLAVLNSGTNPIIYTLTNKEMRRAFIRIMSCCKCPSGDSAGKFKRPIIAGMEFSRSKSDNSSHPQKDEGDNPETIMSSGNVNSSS
T2 sequence (Q99500 whole entry): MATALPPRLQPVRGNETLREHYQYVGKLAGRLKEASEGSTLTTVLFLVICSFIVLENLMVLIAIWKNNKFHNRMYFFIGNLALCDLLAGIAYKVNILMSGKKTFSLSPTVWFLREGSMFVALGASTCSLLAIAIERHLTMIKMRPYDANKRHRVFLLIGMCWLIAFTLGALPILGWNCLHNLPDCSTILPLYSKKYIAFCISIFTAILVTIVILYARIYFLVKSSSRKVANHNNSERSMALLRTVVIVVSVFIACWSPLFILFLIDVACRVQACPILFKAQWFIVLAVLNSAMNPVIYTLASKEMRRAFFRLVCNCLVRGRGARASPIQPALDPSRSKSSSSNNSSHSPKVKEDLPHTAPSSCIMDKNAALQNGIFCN

Structure (SMILES)	EC50 [1] [nM]	EC50 [2] [nM]
CC(C)Oc1ccc(-c2nc(-c3cccc4c(CCC(=O)O)nccc34)no2)cc1Cl [Example 1, 3-[5-(5-{3-Chloro-4-[(1-methylethyl)oxy]phenyl}-1,2,4-oxadiazol-3-yl)-1-isoquinolinyl]propanoic acid lithium salt]	≤ 10	–
CC(C)Oc1ccc(-c2nc(-c3cccc4c(N5CCC(C(=O)O)CC5)nccc34)no2)cc1Cl [Example 4, 1-[5-(5-{3-Chloro-4-[(1-methylethyl)oxy]phenyl}-1,2,4-oxadiazol-3-yl)-1-isoquinolinyl]-4-piperidinecarboxylic acid lithium salt]	≤ 10	3160
O=C(O)CCc1nccc2c(-c3noc(-c4ccc(OCC(F)(F)F)c(Cl)c4)n3)cccc12 [Example 24, 3-[5-(5-{3-Chloro-4-[(2,2,2-trifluoroethyl)oxy]phenyl}-1,2,4-oxadiazol-3-yl)-1-isoquinolinyl]propanoic acid hydrochloride]	≤ 10	–
CC(C)Oc1ccc(-c2nc(-c3cccc4c(CCC(=O)O)nccc34)no2)cc1C#N [Example 26, 3-[5-(5-{3-Cyano-4-[(1-methylethyl)oxy]phenyl}-1,2,4-oxadiazol-3-yl)-1-isoquinolinyl]propanoic acid hydrochloride]	≤ 10	–

Continued, values first:

EC50 [1] [nM]	EC50 [2] [nM]	Structure (SMILES)
≤ 10	–	CC(C)Oc1ncc(-c2nc(-c3cccc4c(CCC(=O)O)nccc34)no2)cc1Cl [Example 27, 3-[5-(5-{5-Chloro-6-[(1-methylethyl)oxy]-3-pyridinyl}-1,2,4-oxadiazol-3-yl)-1-isoquinolinyl]propanoic acid]
≤ 10	–	CC(C)Oc1ncc(-c2nc(-c3cccc4c(CCCC(=O)O)nccc34)no2)cc1Cl [Example 30, 4-[5-(5-{5-Chloro-6-[(1-methylethyl)oxy]-3-pyridinyl}-1,2,4-oxadiazol-3-yl)-1-isoquinolinyl]butanoic acid]

— US8329730B2, “Compounds” (Glaxo Group Limited, priority 2008, dated 2012)
